Reference: ChEMBL document CHEMBL1146118, “Design, synthesis and biological evaluations of novel oxindoles as HIV-1 non-nucleoside reverse transcriptase inhibitors. Part I” (Bioorg Med Chem Lett, 2006)

Key:
[1] = system: Human immunodeficiency virus 1; assay: Antiviral activity against HIV1 in HEK293T cells; assay type: functional, organism-based; settings: Human immunodeficiency virus 1, HEK-293T
HEK293 = assay: Cytotoxicity against HEK293T cells; assay type: functional; settings: Homo sapiens

SMILES | EC50 [1] | CC50 (HEK293)
O=C1Nc2ccc(Br)cc2C12CC2COc1ccccc1 (stereo not given) | 5620 nM | > 10 µM
CCOC(=O)[C@H]1C[C@]12C(=O)N(C)c1ccc(Br)cc12 | > 10000 nM | > 10 µM
CCOC(=O)[C@H]1C[C@]12C(=O)Nc1ccc(OC(F)(F)F)cc12 | 2230 nM | > 10 µM
CCCCC1CC12C(=O)Nc1ccc(Br)cc12 (stereo not given) | 197 nM | > 10 µM
CC(C)(C)OC(=O)[C@H]1C[C@]12C(=O)Nc1ccc(Br)cc12 | 40 nM | > 10 µM
CCCCCC#CC1CC12C(=O)Nc1ccc(Br)cc12 (stereo not given) | 463 nM | 6.62 µM
CCOC(=O)[C@H]1C[C@]12C(=O)Nc1ccc(-c3cccs3)cc12 | 2650 nM | 1.94 µM
O=C1Nc2ccc(Cl)cc2[C@@](C#CC2CC2)(C(F)(F)F)O1 [EFAVIRENZ] | – | 10 µM
CCOC(=O)[C@H]1C[C@]12C(=O)Nc1cc(Cl)ccc12 | > 10000 nM | > 10 µM
CCCCC(=O)[C@H]1C[C@]12C(=O)Nc1ccc(Br)cc12 | 620 nM | > 10 µM
CCOC(=O)[C@H]1C[C@]12C(=O)Nc1ccc(-c3ccco3)cc12 | 608 nM | 2.19 µM
O=C([C@H]1C[C@]12C(=O)Nc1ccc(Br)cc12)N1CCCCC1 | 586 nM | > 10 µM
CCOC(=O)[C@H]1C[C@]12C(=O)Nc1ccc(-c3ccccc3)cc12 | 126 nM | > 10 µM
O=C(O)[C@H]1C[C@]12C(=O)Nc1ccc(Br)cc12 | 7630 nM | > 10 µM
CCN(CC)C(=O)[C@H]1C[C@]12C(=O)Nc1ccc(Br)cc12 | 1420 nM | > 10 µM
COC(=O)CC1CC12C(=O)Nc1ccc(Br)cc12 (stereo not given) | > 10000 nM | > 10 µM
O=C(OCc1ccccc1)[C@H]1C[C@]12C(=O)Nc1ccc(Br)cc12 | 5580 nM | > 10 µM
CCOC(=O)[C@@]1(C)C[C@]12C(=O)Nc1ccc(Br)cc12 | 33300 nM | > 10 µM
CCOC(=O)[C@H]1C[C@]12C(=O)Nc1ccc(C)cc12 | 1100 nM | > 10 µM
C=Cc1ccc2c(c1)[C@@]1(C[C@@H]1C(=O)OCC)C(=O)N2 | > 10000 nM | > 10 µM
CCOC(=O)/C=C1\C(=O)Nc2ccc(Br)cc21 | > 10000 nM | > 10 µM
CCOC(=O)/C=C1/C(=O)Nc2ccc(Br)cc21 | 2280 nM | > 10 µM
CCOC(=O)[C@H]1C(C)(C)[C@]12C(=O)Nc1ccc(Br)cc12 | 15 nM | > 10 µM
CCOC(=O)[C@H]1C2(CCCC2)[C@]12C(=O)Nc1ccc(Br)cc12 | 1460 nM | > 10 µM

SMILES | EC50 [1] | CC50 (HEK293)
CON(C)C(=O)[C@H]1C[C@]12C(=O)Nc1ccc(Br)cc12 | 656 nM | > 10 µM
CCOC(=O)[C@H]1C[C@]12C(=O)Nc1ccc(Br)cc12 | 66 nM | > 10 µM
CCOC(=O)[C@H]1C[C@]12C(=O)Nc1ccc([N+](=O)[O-])cc12 | 1030 nM | > 10 µM
CCOC(=O)[C@@H]1C[C@]12C(=O)Nc1ccc(Br)cc12 | > 10000 nM | > 10 µM
CCOC(=O)[C@H]1C[C@]12C(=O)Nc1ccc(C#N)cc12 | 66 nM | > 10 µM
CCOC(=O)[C@H]1C(CC)(CC)[C@]12C(=O)Nc1ccc(Br)cc12 | > 10000 nM | > 10 µM
O=C([C@H]1C[C@]12C(=O)Nc1ccc(Br)cc12)N1CCCC1 | 191 nM | > 10 µM
CCOC(=O)[C@H]1C[C@]12C(=O)Nc1ccc(Cl)cc12 | 59 nM | > 10 µM
CCOC(=O)[C@H]1C[C@]12C(=O)Nc1ccc(N)cc12 | 2700 nM | 1.99 µM
CCOC(=O)[C@H]1[C@@H](CC)[C@]12C(=O)Nc1ccc(Br)cc12 | 1210 nM | > 10 µM
CCOC(=O)CC1(C)C(=O)Nc2ccc(Br)cc21 (stereo not given) | > 10000 nM | > 10 µM
O=C([C@H]1C[C@]12C(=O)Nc1ccc(Br)cc12)N1CCSC1 | 180 nM | > 10 µM
CCCNC(=O)[C@H]1C[C@]12C(=O)Nc1ccc(Br)cc12 | > 10000 nM | > 10 µM
CCOC(=O)[C@H]1C[C@]12C(=O)Nc1c(C)cc(Cl)cc12 | 2250 nM | > 10 µM
CCOC(=O)[C@H]1C[C@]12C(=O)Nc1ccc(-c3cccn3C)cc12 | 358 nM | 8.06 µM
CCOC(=O)[C@H]1C[C@]12C(=O)Nc1cccc(Br)c12 | > 10000 nM | > 10 µM
CC(C)OC(=O)[C@H]1C[C@]12C(=O)Nc1ccc(Br)cc12 | 59 nM | > 10 µM
Cc1ccnc2c1NC(=O)c1cccnc1N2C1CC1 [NEVIRAPINE] | 50 nM | > 10 µM
CCOC(=O)[C@H]1C[C@]12C(=O)Nc1c(Cl)cc(Cl)cc12 | 7360 nM | > 10 µM
CCOC(=O)[C@H]1[C@H](CC)[C@]12C(=O)Nc1ccc(Br)cc12 | 30 nM | > 10 µM
CCOC(=O)[C@H]1C[C@]12C(=O)Nc1ccc(I)cc12 | 486 nM | > 10 µM
CCOC(=O)[C@H]1C[C@]12C(=O)Nc1ccccc12 | 279 nM | > 10 µM
CCOC(=O)[C@H]1C[C@]12C(=O)Nc1ccc(F)cc12 | 289 nM | > 10 µM
CCOC(=O)[C@H]1C[C@]12C(S)=Nc1ccc(Br)cc12 | > 10000 nM | > 10 µM
